Entries after “also recorded” stand apart in the source; their conditions may differ.

What all share (assay type): cell-based
The subject of one experiment is HSV-1 ICP0. Briefly: Real-time RT-PCR of HSV-1 ICP0 transcript in HEp-2 cells. The note with it: 12 and 24 hpi, versus DMSO. The text has this: The total transcript levels were quantified using actin expression as an internal control. The cDNA obtained immediately after the virus and drug transfection(s) was set as a baseline value. The normalized expression values were transformed to the log 10 value. The data plot represents mean t standard error calculated from three replicates.
Following instructions of the manufacturers, total RNA was isolated using Tri Reagent® (Ambion, Inc., Austin, Tex.). To quantitatively examine the mRNA level of HSV-1 ICP0 from the infected cells, real-time RT-PCR was undertaken using the QuantiTect SYBR Green RT-PCR kit (QIAGEN, Valencia, Calif.). […] Fluorescence (captured at 80° C.) was determined to be absent from the signal generated by primer dimers. Data were collected and recorded by the BIORAD CFX Manager software. The relative quantity of the ICP0 transcripts at the indicated time points was normalized to the relative quantity of the reference gene actin at the same time points and then the log10 copy number of the normalized RNA transcripts were calculated and presented on a bar chart. A melting temperature curve analysis was obtained by measuring (after the amplification cycles) the fluorescence during a period of warming from 60° C. to 95° C. […]
In general terms: Real-time PCR tracks product formation cycle by cycle.

For a further experiment, the system named is HSV-1. The experiment can be described thus: Plaque formation unit (pfu) assay. How it is done:
The viral plaque assay was performed as previously described [Tang Q, Li L, Ishov A M, Revol V, Epstein A L, Maul G G. Determination of minimum herpes simplex virus type 1 components necessary to localize transcriptionally active DNA to ND10. J Virol. 2003; 77:5821-28.] with slight modifications. The HSV-1 strain 17 was diluted serially in a volume of 1 mL. Then 300 ul of the virus was added onto confluent HEp-2 cell monolayers in 12-well plates; each dilution had 3 wells. After adsorption for 2 h, the medium was removed and the cells were washed twice with serum-free DMEM and overlaid with phenol-free DMEM containing 5% FCS, 0.5% low-melting point agarose (GIBCO), and 1% penicillin-streptomycin. The cells were incubated at 37° C. for 48 hours. Neutral red was added on the agarose to stain the live cells. The plaques were counted and reported as pfu per mL. Mean pfu was determined after averaging the number of pfu from different dilutions. Student's t-tests were used to statistically analyze differences between the groups; a p-value lower than 0.005 was used as the threshold for a significant difference.
To assess the efficacy of SD-29 on the HSV-1 proliferation, a plaque assay was performed. We wanted to quantitatively assess whether SD-29 could inhibit viral replication. Because HSV-1 was able to enter cultured HEp-2 cells, we evaluated whether this entry led to productive virus replication.
In Table 1, confluent monolayers of HEp-2 cells were infected with serially diluted HSV-1 virus and were fixed and Giemsa stained at 0, 6, 12, and 24 hr post infection. The numbers of plaques were visualized. The number of plaques formed post infection decreased in the presence of SD-29 in a time-dependent manner.

Another experiment relates to EV-D68. The experiment can be described thus: EV-D68 VP1 western assay in HEp-2 cells. The note with it: 48 h; for EV-D68 proliferation / major structural protein VP1: HEp-2 cells, western. How it is done: HEp-2 cells were grown to 80-90% confluency in Dulbecco's Modified Eagle's medium (DMEM) supplemented with 10% fetal calf serum (FCS) and 1% penicillin-streptomycin (PS) and fungicide. The virus and the indicated concentration of compounds were added and incubated for 48 h. After washing with PBS, the cell lysates were collected and were run in a Biorad XT-Criterion gel and transferred to a PVDF membrane. The membrane was blotted with an antibody directed against the EVD68 major structural protein VP1 purchased from Genetex (Irvine, Calif.). An anti-mouse IgG-HRP secondary antibody and Biorad's Western ECL substrate-Clarity was used to label the bands and the image was obtained in a Biorad Gel doc system. […] The tubulin antibody was used as the loading control.
HEp-2 cells were grown to 80-90% confluency in Dulbecco's Modified Eagle's medium (DMEM) supplemented with 10% fetal calf serum (PCS) and 1% penicillin-streptomycin (PS) and 1% fungicide. The EV-D68 virus and the indicated concentration of compounds were added and incubated for 48 h. After washing with PBS, the cell lysates were collected and were run in a Biorad Stain free TGX gel and were transferred to a PVDF membrane. The membrane was blotted with an antibody directed against the EV-D68 major structural protein VP1 purchased from Genetex (Irvine, Calif.). An antimouse IgG-HRP secondary antibody and Biorad's Western ECL substrate-Clarity was used to label the bands and the image was obtained in a Biorad Gel doc system. […] The non-specific band high above the VP1 band indicate that all virus treated lanes were loaded with equal amount of lysates. The identity of the EV-D68 VP1 protein is confirmed by the lack of the 33 kD band in the no virus lane.
HEp-2 cells were grown to 80-90% confluency in Dulbecco's Modified Eagle's medium (DMEM) supplemented with 10% fetal calf serum FCS and 1% penicillin-streptomycin (PS) and fungicide. The representative virus (EV-D68) and the indicated concentration of compounds were added and incubated for 48 h. […]

On to `Nn1c(S)nnc1-c1ccc(F)cc1` [SD-29], for which the “ICP0 mRNA level” value in the experiment on HSV-1 ICP0 is reported as “essentially showed the same level of ICP0 mRNA”. Besides, the Plaque formation unit in the experiment with HSV-1 (0 hpi) is given as 0 ± 0 PFU/mL; in the experiment on HSV-1 (6 hpi), 0 ± 0 PFU/mL; in the experiment with HSV-1 (12 hpi) it was 1 ± 0.08 × 10^2 PFU/mL; with HSV-1 (24 hpi) it was 1.8 ± 0.04 × 10^5 PFU/mL. Also, the “production of infectious virions” value with HSV-1 (infected HEp-2 cells, versus DMSO) is listed as “failed to produce significant infectious virions”.

For the molecule `Nn1c(S)nnc1-c1cc(Cl)cc(Cl)c1` [SD29-14], the “EV-D68 proliferation / major structural protein VP1” value in the experiment on EV-D68 is reported as “inhibits EV-D68 proliferation in a dose dependent way; also recorded: effectively inhibited the viral major structural protein VP1”; with EV-D68 (listed as SD 29-14), “inhibits proliferation of a representative virus (EV-D68), in a dose dependent way”. Further, in the experiment on EV-D68 (VP1 western), the “efficacy in inhibiting EV-D68 compared with SD29 and SD29-12” value is listed as “better efficacy”.

(Values after US11596623B2, “Methods for treating virus infection or proliferation” (HOWARD UNIVERSITY, priority 2018, dated 2023).)
